Laboratory results published in patent US8710045B2, “Agents for preventing and treating disorders involving modulation of the ryanodine receptors” (The Trustees of Columbia University in the City of New York, priority 2004, dated 2014).

Assays:
PKA-phosphorylated RyR2 = target: T1, PKA-phosphorylated RyR2 (Homo sapiens, UniProt Q92736); test: FKBP12.6 rebinding assay: FKBP12.6 binding to PKA-phosphorylated RyR2 in cardiac SR
T1 construct: from tissue
Protocol: Samples are centrifuged at 95,000 g for 10 min and the pellets are washed three times in 0.2 ml imidazole buffer. The final pellets are pooled and resuspended in imidazole buffer (final concentration≈10 μg/μl). […] Samples then are centrifuged at 100,000 g for 10 minutes and pellets washed 3 times with imidizol buffer. […] Immunoblots are developed using an anti-FKBP antibody (1:3,000 dilution). […] The intracellular solution contains (in mM): CsCl, 60; CaCl2, 1; EGTA, 11; MgCl2, 1; K2ATP, 5; HEPES, 10; aspartic acid, 50; pH 7.4 (CsOH). Under these conditions, it is expected that the measured current was carried by Ba^2+ primarily through L-type calcium channels which is referred to as ICa,L. Drugs are applied by a local solution changer and reach the cell membrane within 1 s.
The FKBP12.6 rebinding assay described above is used to determine the amount of FKBP12.6 binding to PKA-phosphorylated RyR2 at various concentrations (0.5-1000 nM) of the compounds shown. EC50 values are calculated using Michaelis-Menten curve fitting.
The EC50 values are calculated using Michaelis-Menten curve fitting.

RyR1 = target: T2, RyR1 (Mus musculus, UniProt E9PZQ0); test: Analysis of ryanodine receptor complex from EDL after chronic exercise (immunoprecipitation, immunoblot); assay type: in vivo; conditions: chronic exercise protocol
T2 construct: RyR1 was immunoprecipitated from soleus muscle homogenates of mice following 21 days of exercise; from tissue; host or cells: mouse hind-limb skeletal muscle (soleus, EDL; SR microsomes for bilayer recording)
Protocol: Analysis of Ryanodine Receptor Complex: 10 mg muscle samples were isotonically lysed. […] The samples were incubated with protein A Sepharose beads (Amersham Pharmacia) at 4° C. for 1 h, after which the beads were washed three times with buffer. Proteins were separated on SDS-PAGE gels (4-20% gradient) and transferred onto nitrocellulose membranes overnight (SemiDry transfer blot, Bio-Rad). After incubation with blocking solution (LICOR Biosciences, Lincoln Nebr.) to prevent non-specific antibody binding and a wash in Tris-buffered saline with 0.1% Tween-20, membranes were incubated for 1-2 h at room temperature with primary antibodies anti-calstabin (1:2500 in blocking buffer), anti-RyR (5029, 1:5,000), or anti-phospho-RyR2-pSer2809 (1:5000), which detects PKA-phosphorylated mouse RyR1-pSer2844 and RyR2-pSer2808, anti-PDE4D3 (1:1000). After three washes, membranes were incubated with infrared labeled secondary antibodies (1:10,000 dilution, LICOR Biosystems). Band densities were quantified using the Odyssey Infrared Imaging System (LICOR Biosciences).

[1] = Plasma creatine kinase (CPK) activity in chronically exercised mice; assay type: in vivo, mouse
Protocol: Calpain and Creatine Kinase Assays: Tissue calpain activities were measured using a calpain activity assay kit (Calbiochem, San Diego, Calif.) (FIG. 42B). This assay is based on the degradation of the fluorescent peptide substrate Suc-LLVY-AMC (Calbiochem). Muscle homogenates were diluted to a final concentration of 600 μg/ml and the calpain activity in the homogenate was determined as per manufactures instructions. Plasma creatine kinase (CK) activity was assayed using the regent kit from Pointe Scientific, Inc. (Canton, Mich.) (FIG. 42A). Plasma samples (duplicates, 5 μl each) were added to 200 μl of CK reagent and the change in absorbance at 340 nm was recorded over 4 minutes using a plate reader. The average absorbance change per minute was used to determine the CPK levels as per manufacturer's instructions.
Reduced calpain activation in muscle tissue and reduced muscle tissue damage due to calstabin1 rebinding: One possible mechanism by which calcium released by leaky RyR1 channels impairs exercise performance is the activation of a member of the calpain family of Ca^2+-dependent neutral proteases, which are known to be responsible for muscle damage in a number of pathophysiological states. […] Calpain activity in muscle homogenates was assessed by means of the degradation of the synthetic calpain substrate Suc-LLVY-AMC, which fluoresces upon cleavage by calpain.

calpain = test: Calpain activity in mdx mouse muscular dystrophy model during exercise; assay type: in vivo; conditions: mdx mice, 0.125 mg/kg/h for 28 days, downhill treadmill
Protocol: After treatment, the mice were subjected to downhill (14° angel) treadmill running for 30 min at 18 m/min. Immediately after the exercise, the animals were sacrificed and the skeletal muscles were harvested.
Preparation of EDL Homogenates: EDL muscles homogenates were prepared in 0.5 ml of homogenization buffer (20 mM NaF, 10 mM Tris-maleate, pH7.2+protease inhibitors). […] sarcoplasmic reticulum (CSR) fractions were obtained by centrifuging the homogenates at 50,000×g for 30 min. Homogenates were centrifuged at 4000×g for 20 min and the supernatants were centrifuged for 20 min at 10000×g. Aliquots of the homogenates were assayed for protein concentration and stored at −80° C.
Calpain Activity Assay: Calpain activity of EDL homogenates (30 μg) were measured using a Calpain Activity Assay kit (Calbiochem). The assay utilizes a synthetic calpain substrate, suc-LLVY-AMC. AMC is released upon cleavage with calpain and is measured fluorometrically. Assays are performed with both an activation and an inhibition buffer to determine specific calpain activity in the sample.

RyR = test: Calstabin binding to RyR in brain after isoproterenol infusion (RyR immunoprecipitation, western blot)
Protocol: Tissue lysates were prepared by homogenizing the tissue (e.g., brain, cardiac, muscle) with Tissuemiser in 0.7 ml lysis buffer (pH 7.4, 10 mM HEPES, 1 mM EDTA, 20 mM NaF, 2 mM Na3 VO4, 320 mM sucrose, and protease inhibitors) and centrifuged for 15 min at 4,000×g at 4° C. The supernatant was then centrifuged for 15 min at 10,000×g at 4° C. For brain homogenates, the supernatant was centrifuged at 50,000×g at 4° C. for 30 minutes, and the pellet (microsomes) was resuspended in homogenization buffer which was supplemented with 0.9% NaCl. For brain tissue, the resuspended pellet was used for immunoprecipitation of RyR. For cardiac and muscle tissue homogenates, the supernatant of the 10,000×g spin was used for immunoprecipitation of the RyR. Protein concentrations were measured by Bradford protein assay. The sample was frozen at −80° C. until use.
100 μg of microsomes were brought to a volume of 500 μl with modified RIP A buffer (50 mM Tris-HCl (PH 7.4), 0.9% NaCl, 5.0 mM NaF, 1.0 mM Na3VO4, 0.5% TritonX100, and protease inhibitors). […]
Experiments were performed to determine whether the compounds described herein cross the blood brain barrier and enhance binding of cal stab in to ryanodine receptors in the brain. […] RyR was immunoprecipitated using an antibody to RyR, and the presence of calstabin in the immunoprecipitates was detected using an antibody to calstabin.

T1 sequence (Q92736 whole entry): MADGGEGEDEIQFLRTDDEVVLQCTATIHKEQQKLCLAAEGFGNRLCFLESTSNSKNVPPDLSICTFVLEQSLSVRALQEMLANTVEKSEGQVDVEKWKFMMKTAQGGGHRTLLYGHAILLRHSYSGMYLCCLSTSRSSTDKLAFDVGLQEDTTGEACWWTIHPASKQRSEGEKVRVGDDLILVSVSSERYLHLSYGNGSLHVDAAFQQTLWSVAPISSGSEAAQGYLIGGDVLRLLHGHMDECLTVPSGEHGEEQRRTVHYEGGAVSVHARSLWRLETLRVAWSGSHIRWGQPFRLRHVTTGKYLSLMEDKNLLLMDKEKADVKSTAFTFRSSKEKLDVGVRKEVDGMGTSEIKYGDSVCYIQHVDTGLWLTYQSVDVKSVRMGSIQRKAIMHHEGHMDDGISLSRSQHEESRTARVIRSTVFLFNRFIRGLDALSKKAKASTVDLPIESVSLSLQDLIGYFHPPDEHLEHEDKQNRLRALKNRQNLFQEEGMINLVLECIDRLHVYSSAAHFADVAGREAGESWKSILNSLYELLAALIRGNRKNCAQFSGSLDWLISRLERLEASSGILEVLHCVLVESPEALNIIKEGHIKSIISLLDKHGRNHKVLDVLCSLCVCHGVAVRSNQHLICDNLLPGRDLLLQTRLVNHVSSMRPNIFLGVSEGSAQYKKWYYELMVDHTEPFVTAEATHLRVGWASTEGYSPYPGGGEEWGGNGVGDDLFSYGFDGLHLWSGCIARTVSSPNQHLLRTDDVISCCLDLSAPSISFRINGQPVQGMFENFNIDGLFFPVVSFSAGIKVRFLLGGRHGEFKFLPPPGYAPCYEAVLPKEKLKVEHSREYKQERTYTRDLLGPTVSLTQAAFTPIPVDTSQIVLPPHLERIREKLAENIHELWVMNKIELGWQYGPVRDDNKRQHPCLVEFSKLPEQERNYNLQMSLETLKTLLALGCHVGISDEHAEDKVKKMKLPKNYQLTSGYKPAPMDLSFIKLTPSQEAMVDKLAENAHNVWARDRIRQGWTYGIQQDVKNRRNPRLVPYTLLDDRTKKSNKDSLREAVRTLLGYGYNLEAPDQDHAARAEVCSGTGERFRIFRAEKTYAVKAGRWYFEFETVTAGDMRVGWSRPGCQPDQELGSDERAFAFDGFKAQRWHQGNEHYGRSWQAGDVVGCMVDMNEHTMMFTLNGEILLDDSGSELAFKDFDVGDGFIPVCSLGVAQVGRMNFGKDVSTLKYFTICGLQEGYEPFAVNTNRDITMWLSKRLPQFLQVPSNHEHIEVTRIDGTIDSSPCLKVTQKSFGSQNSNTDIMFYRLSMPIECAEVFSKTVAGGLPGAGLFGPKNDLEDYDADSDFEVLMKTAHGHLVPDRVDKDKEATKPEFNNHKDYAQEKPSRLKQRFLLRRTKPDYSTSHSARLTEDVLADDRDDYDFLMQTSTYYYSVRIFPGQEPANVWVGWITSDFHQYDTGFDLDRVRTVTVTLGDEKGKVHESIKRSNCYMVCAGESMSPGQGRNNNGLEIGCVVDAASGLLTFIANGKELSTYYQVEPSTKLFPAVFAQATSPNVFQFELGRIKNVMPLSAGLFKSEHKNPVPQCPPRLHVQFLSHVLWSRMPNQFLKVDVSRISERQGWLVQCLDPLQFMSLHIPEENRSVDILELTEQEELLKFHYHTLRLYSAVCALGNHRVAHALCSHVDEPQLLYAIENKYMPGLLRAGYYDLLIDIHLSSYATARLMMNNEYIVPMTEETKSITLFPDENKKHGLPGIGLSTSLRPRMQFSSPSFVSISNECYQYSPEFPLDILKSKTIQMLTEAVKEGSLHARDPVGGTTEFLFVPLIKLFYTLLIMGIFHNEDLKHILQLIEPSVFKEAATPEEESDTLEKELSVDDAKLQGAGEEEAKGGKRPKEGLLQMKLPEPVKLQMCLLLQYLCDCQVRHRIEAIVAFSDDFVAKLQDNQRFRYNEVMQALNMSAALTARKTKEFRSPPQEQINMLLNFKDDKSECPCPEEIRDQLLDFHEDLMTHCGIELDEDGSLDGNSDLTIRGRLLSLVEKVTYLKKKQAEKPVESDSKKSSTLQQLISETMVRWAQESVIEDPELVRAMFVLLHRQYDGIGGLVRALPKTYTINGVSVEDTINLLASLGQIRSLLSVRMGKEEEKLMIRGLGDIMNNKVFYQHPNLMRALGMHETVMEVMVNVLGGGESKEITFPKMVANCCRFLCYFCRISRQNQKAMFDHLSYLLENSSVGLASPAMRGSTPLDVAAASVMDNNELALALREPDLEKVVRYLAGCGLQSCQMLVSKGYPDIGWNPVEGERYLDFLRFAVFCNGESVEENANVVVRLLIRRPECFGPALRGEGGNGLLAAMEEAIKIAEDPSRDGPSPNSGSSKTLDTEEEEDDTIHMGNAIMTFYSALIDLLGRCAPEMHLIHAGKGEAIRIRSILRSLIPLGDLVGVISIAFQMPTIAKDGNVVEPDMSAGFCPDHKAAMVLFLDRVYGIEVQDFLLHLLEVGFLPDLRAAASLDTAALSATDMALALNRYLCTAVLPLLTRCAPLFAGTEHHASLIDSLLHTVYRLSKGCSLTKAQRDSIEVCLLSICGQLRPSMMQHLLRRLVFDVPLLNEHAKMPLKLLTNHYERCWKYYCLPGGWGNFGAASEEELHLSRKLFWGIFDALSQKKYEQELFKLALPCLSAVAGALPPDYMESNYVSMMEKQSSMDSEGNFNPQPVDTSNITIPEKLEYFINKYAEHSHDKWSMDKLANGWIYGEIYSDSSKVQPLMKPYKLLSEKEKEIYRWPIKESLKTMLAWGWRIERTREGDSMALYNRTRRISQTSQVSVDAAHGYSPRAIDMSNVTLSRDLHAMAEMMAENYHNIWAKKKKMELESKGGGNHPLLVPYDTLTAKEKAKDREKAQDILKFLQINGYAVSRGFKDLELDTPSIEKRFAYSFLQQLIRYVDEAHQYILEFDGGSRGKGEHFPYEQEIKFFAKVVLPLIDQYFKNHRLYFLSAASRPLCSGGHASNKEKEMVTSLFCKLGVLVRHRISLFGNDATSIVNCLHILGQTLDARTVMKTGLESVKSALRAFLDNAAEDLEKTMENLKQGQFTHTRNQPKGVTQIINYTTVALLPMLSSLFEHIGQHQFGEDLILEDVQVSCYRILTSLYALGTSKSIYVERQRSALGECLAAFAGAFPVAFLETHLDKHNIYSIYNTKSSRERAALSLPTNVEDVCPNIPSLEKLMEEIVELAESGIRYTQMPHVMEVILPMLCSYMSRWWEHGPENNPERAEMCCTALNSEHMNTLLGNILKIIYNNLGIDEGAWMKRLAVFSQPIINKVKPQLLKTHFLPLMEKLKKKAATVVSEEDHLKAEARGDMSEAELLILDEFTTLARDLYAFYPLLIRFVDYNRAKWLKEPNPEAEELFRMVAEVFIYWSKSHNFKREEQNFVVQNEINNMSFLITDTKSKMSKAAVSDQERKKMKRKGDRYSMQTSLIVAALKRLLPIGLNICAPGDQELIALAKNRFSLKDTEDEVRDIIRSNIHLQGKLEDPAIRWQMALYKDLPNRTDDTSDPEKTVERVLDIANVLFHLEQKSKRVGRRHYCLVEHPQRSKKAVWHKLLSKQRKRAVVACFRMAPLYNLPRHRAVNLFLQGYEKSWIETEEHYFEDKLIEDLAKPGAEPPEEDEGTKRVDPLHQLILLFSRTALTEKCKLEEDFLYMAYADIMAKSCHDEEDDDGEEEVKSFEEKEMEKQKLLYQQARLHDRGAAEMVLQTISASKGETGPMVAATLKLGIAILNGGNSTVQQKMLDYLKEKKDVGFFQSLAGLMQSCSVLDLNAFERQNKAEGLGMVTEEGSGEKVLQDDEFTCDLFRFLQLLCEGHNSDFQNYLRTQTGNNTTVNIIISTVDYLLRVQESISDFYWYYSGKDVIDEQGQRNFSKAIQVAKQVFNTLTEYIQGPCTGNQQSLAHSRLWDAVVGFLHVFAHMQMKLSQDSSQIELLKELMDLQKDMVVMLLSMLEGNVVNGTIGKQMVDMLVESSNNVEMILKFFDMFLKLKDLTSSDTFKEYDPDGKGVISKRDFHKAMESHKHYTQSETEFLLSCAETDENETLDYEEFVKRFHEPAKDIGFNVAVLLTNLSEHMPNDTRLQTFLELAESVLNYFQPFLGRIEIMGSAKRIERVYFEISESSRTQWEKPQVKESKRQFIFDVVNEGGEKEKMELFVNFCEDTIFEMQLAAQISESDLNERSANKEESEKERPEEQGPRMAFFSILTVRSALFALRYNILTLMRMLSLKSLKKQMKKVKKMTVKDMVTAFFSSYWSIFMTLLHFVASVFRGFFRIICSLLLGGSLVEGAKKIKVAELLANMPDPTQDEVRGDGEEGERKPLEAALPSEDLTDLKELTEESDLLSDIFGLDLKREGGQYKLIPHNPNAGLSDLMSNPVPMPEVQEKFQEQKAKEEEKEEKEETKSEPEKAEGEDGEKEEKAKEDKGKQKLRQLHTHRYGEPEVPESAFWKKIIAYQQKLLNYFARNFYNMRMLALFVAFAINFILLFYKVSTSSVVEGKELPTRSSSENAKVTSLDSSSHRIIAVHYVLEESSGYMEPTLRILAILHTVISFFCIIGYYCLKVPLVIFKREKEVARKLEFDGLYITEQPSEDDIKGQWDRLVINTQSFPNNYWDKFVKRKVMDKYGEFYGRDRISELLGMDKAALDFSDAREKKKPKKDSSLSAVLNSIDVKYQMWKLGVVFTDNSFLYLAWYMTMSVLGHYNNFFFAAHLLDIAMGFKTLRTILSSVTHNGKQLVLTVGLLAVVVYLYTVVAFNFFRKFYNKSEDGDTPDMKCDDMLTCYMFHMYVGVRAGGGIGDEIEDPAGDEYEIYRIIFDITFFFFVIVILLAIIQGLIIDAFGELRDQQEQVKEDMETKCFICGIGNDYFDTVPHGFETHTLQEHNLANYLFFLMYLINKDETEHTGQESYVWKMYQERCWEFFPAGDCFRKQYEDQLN
T1 sequence (P68106 whole entry partner): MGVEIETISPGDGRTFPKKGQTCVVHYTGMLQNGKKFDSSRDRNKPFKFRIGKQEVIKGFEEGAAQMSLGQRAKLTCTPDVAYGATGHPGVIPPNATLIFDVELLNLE

Row | Structure (SMILES) | potency at increasing the binding of FKBP12.6 and RyR2 compared with JTV-519 (PKA-phosphorylated RyR2) | EC50 (PKA-phosphorylated RyR2; compound 0.5-1000 nM, Michaelis-Menten curve fitting) | Calstabin1 depletion from RyR1 (RyR1) | plasma CPK activity levels [1] | calpain activity (calpain) | blood brain barrier penetration (RyR; mice) | in vivo binding of calstabin to RyR (RyR; mid-brain and cerebellum, after isoproterenol infusion for 5 days)
1 | COc1ccc2c(c1)CN(C(=O)C(=O)O)CCS2 [S36] | more potent | 15 nM | – | – | – | – | –
2 | COc1ccc2c(c1)CN(C)CCS2 [S107] | – | – | nearly entirely reversed | reduced close to the levels observed in sedentary controls | reduces calpain activity | crosses the blood brain barrier | restores in vivo binding of calstabin to RyR
